Where two headings read alike, the source gives them in different places. Where a SMILES comes first, the peptide text is derived from it. [ ]: non-standard residue; d: D form. The star is where a group is joined. Pheψ(CH2S)LeuNH2 = CC(C)C[C@H](SC[C@H](Cc1ccccc1)N*)C(N)=O; X2 = CC(C)C[C@@H](CN[C@@H](CC(C)C)C(N)=O)N*; Palmitoyl = CCCCCCCCCCCCCCCC(=O)*; pGlu = O=C1CC[C@@H](C(=O)O)N1; Lauroyl = CCCCCCCCCCCC(=O)*; Octanoyl = CCCCCCCC(=O)*
Columns and labels:
bombesin/GRP receptor = target: T1, bombesin/GRP receptor (Mus musculus, UniProt P21729); experiment: Competition for 125I-GRP binding to murine pancreatic membranes
T1 construct: The pancreata from one or more mice were pooled and homogenized; from tissue; host or cells: mouse pancreas membranes
Method: The pancreata from one or more mice were pooled and homogenized in 50 mM HEPES (pH 7.4) containing 120 mM NaCl, 5 mM KCl, 1 mM EDTA and protease inhibitors (1 μg/ml aprotinin, leupeptin, pepstatin; 4 μg/ml bacitracin, antipain, bestatin; 100 μM PMSF) at 4° C. and centrifuged at 37,500 X g for 15 minutes. The pellet was resuspended in 50 mM HEPES (pH 7.4) containing 10 mM EDTA, 300 mM KCl, and protease inhibitors, and then incubated for 30 minutes at 4° C. The suspension was centrifuged as above and the pellet was washed two times in 50 mM HEPES (pH 7.4) containing 8 μg/ml thiorphan and protease inhibitors, and again centrifuged. The tissue was then resuspended in incubation buffer (1 ml per 4 mg pancreas) and incubated for 15 minutes at room temperature, then 250 μl were added to each assay tube to commence the assay. […] The assay was allowed to proceed to equilibrium for 90 minutes at room temperature. After this time, the contents of each tube was rapidly filtered over Whatman GF/B filters presoaked in 0.1% polyethyleneimine and the filters were rapidly washed three times with ice-cold 50 mM HEPES (pH 7.4). Filter-bound radioactivity was quantitated in a gamma counter. […] Affinity and maximal binding were calculated with LIGAND (Biosoft, Cambridge, UK) (FIGS. 1 and FIG. 2)
The abscissa (x-axis) logarithmically indicates the concentration of agonists being tested.

Bombesin Receptor = target: T2, Bombesin Receptor (Mus musculus, UniProt P21729); experiment: Phosphatidylinositol turnover in chopped mouse pancreas; format: cell-based; design: key to PI Turnover Agonist: (+) represents agonist activity; (-) indicates no agonist activity; conditions: for PI Turnover % Inhibition: antagonist activity, referenced to the stimulation produced by 100 nM GRP
T2 construct: Pancreata from mice were chopped at 350 μm with a tissue chopper and pooled; from tissue; host or cells: chopped mouse pancreas
Method: Pancreata from mice were chopped at 350 μm with a tissue chopper and pooled. The chopped tissue was washed twice with oxygenated Krebs-Hepes, then incubated for 30 minutes in 37° C. oxygenated Krebs-Hepes buffer with fresh buffer after 15 minutes. The tissue was then incubated in this buffer containing 200 μCi of [^3 H] inositol at 37° C. for 1 hour. The tissue was then washed twice and incubated for another 30 minutes in oxygenated Krebs-Hepes (containing 10 mM Li^+) at 37° C. with a fresh buffer change after 15 minutes. Portions of the tissue mass (approximately 10 mg per assay tube) were then placed in Li^+ buffer with protease inhibitors, (40 μg/ml bacitracin, 4 μg/ml leupeptin, 4 μg/ml chymostatin, 8 μg/ml thiorphan), 0.1% BSA, and 0.1-10 μM peptide in a final volume of 250 μl. After 60 minutes at room temperature, the phosphatidylinositol turnover was terminated by the addition of 940 μl chloroform:methanol (1:2), followed by 310 μl chloroform, followed by 310 μl water. Each tube was then vortexed for 5 seconds and then centrifuged at 2500 x g for 10 minutes to separate the phases. 50 μl of the bottom phase (chloroform) was withdrawn from each tube and placed in a counting vial, dried, and counted in scintillation fluid. 900 μl of the top (aqueous) phase were then mixed with 2.1 ml water and loaded onto a 0.5 ml Biorad AG-1X8 (formate) ion exchange column. The material on the columns was washed in order with: 1) 10 ml of water 2) 5 ml of 5 mM disodium tetraborate/60 mM sodium formate 3) 10 ml of 1 M ammonium formate in 0.1 M formic acid. The final (third) wash was collected and one ml was mixed with 14 ml of Bio-Safe scintillant and counted. The ratio of these counts (total inositol phosphates) to the corresponding organic phase counts (inositol incorporated into the tissue) was then calculated for each sample. The ratios in the presence of test compound and/or standards were then compared to the ratios for control tubes (i.e., no stimulating agonist). The abilities of test compounds to stimulate phosphatidyl-inositol turnover were determined with the aid of a computer program. […] The ordinate (y-axis) indicates the observed PI turnover as a percentage of control. Values are mean±standard error of triplicate determinations.

[1] = competitive binding, mouse pancreas, averages of multiple experiments, read-out: Kd

T2 sequence (P21729 whole entry): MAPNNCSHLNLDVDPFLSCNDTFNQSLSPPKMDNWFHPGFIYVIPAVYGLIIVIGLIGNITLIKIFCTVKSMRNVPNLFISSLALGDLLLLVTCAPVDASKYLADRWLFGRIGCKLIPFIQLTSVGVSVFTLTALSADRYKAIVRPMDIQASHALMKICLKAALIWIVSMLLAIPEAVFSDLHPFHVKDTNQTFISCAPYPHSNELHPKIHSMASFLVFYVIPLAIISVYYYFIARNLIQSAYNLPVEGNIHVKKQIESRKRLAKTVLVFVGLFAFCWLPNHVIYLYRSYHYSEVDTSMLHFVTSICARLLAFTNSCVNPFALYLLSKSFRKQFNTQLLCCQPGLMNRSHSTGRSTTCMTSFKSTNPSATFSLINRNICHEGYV
T1 sequence (P21729 whole entry): as above

| SMILES | Kd (bombesin/GRP receptor; [1]) | PI Turnover % Inhibition (Bombesin Receptor) | also measured |
| --- | --- | --- | --- |
| CC(C)C[C@@H](C(N)=O)[S+]([O-])C[C@H](Cc1ccccc1)NC(=O)[C@H](Cc1c[nH]cn1)NC(=O)CNC(=O)[C@@H](NC(=O)[C@H](C)NC(=O)[C@H](Cc1c[nH]c2ccccc12)NC(=O)[C@H](CCC(N)=O)NC(=O)[C@@H]1CCC(=O)N1)C(C)C (single isomer, unassigned) [[Phe^8 .psi.[CH2 S(O)]Leu^9]litorin I, pGlu--Gln--Trp--Ala--Val--Gly--His--Phe.psi.[CH2 S(O)]Leu--NH2] | 1.8 nM |  |  |
| CC(C)C[C@@H](C(N)=O)[S+]([O-])C[C@H](Cc1ccccc1)NC(=O)[C@H](Cc1c[nH]cn1)NC(=O)CNC(=O)[C@@H](NC(=O)[C@H](C)NC(=O)[C@H](Cc1c[nH]c2ccccc12)NC(=O)[C@H](CCC(N)=O)NC(=O)[C@@H]1CCC(=O)N1)C(C)C (single isomer, unassigned) [[Phe^8 .psi.[CH2 S(O)]Leu^9 ]litorin I] [pGlu--Gln--Trp--Ala--Val--Gly--His--Phe.psi.[CH2 S(O)]Leu--NH2] |  | 53% |  |
| CC(C)C[C@H](SC[C@H](Cc1ccccc1)NC(=O)[C@H](Cc1c[nH]cn1)NC(=O)CNC(=O)[C@@H](NC(=O)[C@H](C)NC(=O)[C@H](Cc1c[nH]c2ccccc12)NC(=O)[C@H](CCC(N)=O)NC(=O)[C@@H]1CCC(=O)N1)C(C)C)C(N)=O [[Phe^8 .psi.[CH2 S]Leu^9]litorin, pGlu--Gln--Trp--Ala--Val--Gly--His--Phe.psi.[CH2 S]Leu--NH2] |  | 42% |  |
| CC(C)C[C@@H](CN[C@@H](CC(C)C)C(N)=O)NC(=O)[C@H](Cc1c[nH]cn1)NC(=O)CNC(=O)[C@@H](NC(=O)[C@H](C)NC(=O)[C@H](Cc1c[nH]c2ccccc12)NC(=O)[C@H](CCC(N)=O)NC(=O)[C@H](CC(N)=O)NC(=O)CNC(=O)[C@H](CC(C)C)NC(=O)[C@H](CCCNC(=N)N)NC(=O)[C@H](CCC(N)=O)NC(=O)[C@@H]1CCC(=O)N1)C(C)C [[Leu^13 .psi.{CH2 NH]Leu^14]bombesin, pGlu--Gln--Arg--Leu--Gly--Asn--Gln--Trp--Ala--Val--Gly--His--Leu.psi.[CH2 N]Leu--NH2, reference compound] ([pGlu]QRLGNQWAVGH-X2) |  | 30% |  |
| CC(C)C[C@H](NC(=O)[C@H](CCCNC(=N)N)NC(=O)[C@H](CCC(N)=O)NC(=O)[C@@H]1CCC(=O)N1)C(=O)NCC(=O)N[C@@H](CC(N)=O)C(=O)N[C@@H](CCC(N)=O)C(=O)N[C@@H](Cc1c[nH]c2ccccc12)C(=O)N[C@@H](C)C(=O)N[C@H](C(=O)NCC(=O)N[C@@H](Cc1c[nH]cn1)C(=O)N[C@H](CS[C@@H](CC(C)C)C(N)=O)Cc1ccccc1)C(C)C [[Phe^13 .psi.[CH2 S]Leu^14 bombesin, pGlu--Gln--Arg--Leu--Gly--Asn--Gln--Trp--Ala--Val--Gly--His--Phe.psi.[CH2 S]Leu--NH2] ([pGlu]QRLGNQWAVGH-{Pheψ(CH2S)LeuNH2}) |  | 54% | Kd (bombesin/GRP receptor; Kd (nM), competitive binding, mouse pancreas, averages of multiple experiments): 2.8 nM |
| CC(C)C[C@@H](C(N)=O)[S+]([O-])C[C@H](Cc1ccccc1)NC(=O)[C@H](Cc1c[nH]cn1)NC(=O)CNC(=O)[C@@H](NC(=O)[C@H](C)NC(=O)[C@H](Cc1c[nH]c2ccccc12)NC(=O)[C@H](CCC(N)=O)NC(=O)[C@@H]1CCC(=O)N1)C(C)C (single isomer, unassigned) [[Phe^8 .psi.[CH2 S(O)]Leu^9]litorin II, pGlu--Gln--Trp--Ala--Val--Gly--His--Phe.psi.[CH2 S(O)]Leu--NH2] | 1 nM |  |  |
| CC(C)C[C@@H](CN[C@@H](CC(C)C)C(N)=O)NC(=O)[C@H](Cc1cnc[nH]1)NC(=O)CNC(=O)[C@@H](NC(=O)[C@H](C)NC(=O)[C@H](Cc1c[nH]c2ccccc12)NC(=O)[C@H](CCC(N)=O)NC(=O)[C@H](CC(N)=O)NC(=O)CNC(=O)[C@H](CC(C)C)NC(=O)[C@H](CCCN=C(N)N)NC(=O)[C@H](CCC(N)=O)NC(=O)[C@@H]1CCC(=O)N1)C(C)C [[Leu^13 .psi.{CH2 NH]Leu^14]bombesin, pGlu--Gln--Arg--Leu--Gly--Asn--Gln--Trp--Ala--Val--Gly--His--Leu.psi.[CH2 N]Leu--NH2, reference compound] ([pGlu]QRLGNQWAVGH-X2) | 8 nM |  |  |
| CC(C)C[C@@H](C(N)=O)[S+]([O-])C[C@H](Cc1ccccc1)NC(=O)[C@H](Cc1c[nH]cn1)NC(=O)CNC(=O)[C@@H](NC(=O)[C@H](C)NC(=O)[C@H](Cc1c[nH]c2ccccc12)NC(=O)[C@H](CCC(N)=O)NC(=O)[C@@H]1CCC(=O)N1)C(C)C (single isomer, unassigned) [[Phe^8 .psi.[CH2 S(O)]Leu^9 ]litorin II] [pGlu--Gln--Trp--Ala--Val--Gly--His--Phe.psi.[CH2 S(O)]Leu--NH2] |  | 83% |  |
| CCCCCCCCCCCCCCCC(=O)N[C@@H](CCC(N)=O)C(=O)N[C@@H](Cc1c[nH]c2ccccc12)C(=O)N[C@@H](C)C(=O)N[C@H](C(=O)N[C@H](C)C(=O)N[C@@H](Cc1c[nH]cn1)C(=O)N[C@@H](CC(C)C)C(N)=O)C(C)C [Palmityl[D-Ala^11]bombesin(7-13)amide, Nα-palmityl-Gln--Trp--Ala--Val-D-Ala--His--Leu--NH2] (Palmitoyl-QWAV[dA]HL-NH2) |  | 45% |  |
| CSCC[C@H](NC(=O)[C@H](Cc1ccccc1)NC(=O)[C@H](Cc1c[nH]cn1)NC(=O)CNC(=O)[C@@H](NC(=O)[C@H](C)NC(=O)[C@H](Cc1c[nH]c2ccccc12)NC(=O)[C@H](CCC(N)=O)NC(=O)[C@@H]1CCC(=O)N1)C(C)C)C(N)=O [Litorin, pGlu--Gin--Trp--Ala--Val--Gly--His--Phe--Met--NH2, reference compound] | 0.075 nM |  | PI Turnover Agonist (Bombesin Receptor): +; Kd (bombesin/GRP receptor; triplicate, in the presence of 40 pM 125I-GRP, LIGAND fit, read-out: Kd, single class of sites (FIG. 2)): 0.1 nM |
| CC(=O)N[C@@H](CCC(N)=O)C(=O)N[C@@H](Cc1c[nH]c2ccccc12)C(=O)N[C@@H](C)C(=O)N[C@H](C(=O)N[C@H](C)C(=O)N[C@@H](Cc1c[nH]cn1)C(=O)N[C@@H](CC(C)C)C(N)=O)C(C)C [Acetyl[D-Ala^11]bombesin(7-13)amide, Nα-acetyl-Gln--Trp--Ala--Val-D-Ala--His--Leu--NH2] (Ac-QWAV[dA]HL-NH2) |  | 24% | PI Turnover Agonist (Bombesin Receptor): - |
| CCCCCCCCCCCC(=O)N[C@@H](CCC(N)=O)C(=O)N[C@@H](Cc1c[nH]c2ccccc12)C(=O)N[C@@H](C)C(=O)N[C@H](C(=O)N[C@H](C)C(=O)N[C@@H](Cc1c[nH]cn1)C(=O)N[C@@H](CC(C)C)C(N)=O)C(C)C [Lauryl[D-Ala^11]bombesin(7-13)amide, Nα-lauryl-Gln--Trp--Ala--Val-D-Ala--His--Leu--NH2] (Lauroyl-QWAV[dA]HL-NH2) |  | 53% |  |
| CCCCCCCC(=O)N[C@@H](CCC(N)=O)C(=O)N[C@@H](Cc1c[nH]c2ccccc12)C(=O)N[C@@H](C)C(=O)N[C@H](C(=O)N[C@H](C)C(=O)N[C@@H](Cc1c[nH]cn1)C(=O)N[C@@H](CC(C)C)C(N)=O)C(C)C [Octanoyl[D-Ala^11]bombesin(7-13)amide, Nα-octyl-Gln--Trp--Ala--Val-D-Ala--His--Leu--NH2] (Octanoyl-QWAV[dA]HL-NH2; N-terminus and C-terminus assumed) |  |  | PI Turnover Agonist (Bombesin Receptor): - |
